The record followed here is patent publication US6204293A, “Inhibitors of protein isoprenyl transferases” (University of Pittsburgh, priority 1998, dated 2001).

The assay addresses T1, Rat brain protein farnesyltransferase (Rattus norvegicus, UniProt Q02293+Q04631).
T1 construct: Rat brain protein farnesyltransferase activity is measured; from tissue; host or cells: rat brain
The assay is described as follows: % inhibition of farnesylation, scintillation proximity assay with biotin-K Ras B fragment. The note with it: for inhibition at 0.01 µM: read-out: % inhibition at 0.01 μM (**); for inhibition at 0.1 µM: read-out: % inhibition at 0.1 μM (*). It is filed as biochemical. The method in brief:
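Rat brain enzyme, purified through three steps, in a scintillation proximity assay kit with biotin-K Ras B fragment substrate at 0.1 mM final. Value is % inhibition of farnesylation.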

Setting [1] is: Table 6, * footnote 0.1 μM (title: 0.1 mM).
Where [2] appears, read: Table 6, ** footnote 0.01 μM (title: 0.01 mM).

Counter-ions that a name gives are not always drawn. Like-named read-outs stand apart in the source and are kept apart here.

T1 sequence (Q02293 whole entry, one chain of several): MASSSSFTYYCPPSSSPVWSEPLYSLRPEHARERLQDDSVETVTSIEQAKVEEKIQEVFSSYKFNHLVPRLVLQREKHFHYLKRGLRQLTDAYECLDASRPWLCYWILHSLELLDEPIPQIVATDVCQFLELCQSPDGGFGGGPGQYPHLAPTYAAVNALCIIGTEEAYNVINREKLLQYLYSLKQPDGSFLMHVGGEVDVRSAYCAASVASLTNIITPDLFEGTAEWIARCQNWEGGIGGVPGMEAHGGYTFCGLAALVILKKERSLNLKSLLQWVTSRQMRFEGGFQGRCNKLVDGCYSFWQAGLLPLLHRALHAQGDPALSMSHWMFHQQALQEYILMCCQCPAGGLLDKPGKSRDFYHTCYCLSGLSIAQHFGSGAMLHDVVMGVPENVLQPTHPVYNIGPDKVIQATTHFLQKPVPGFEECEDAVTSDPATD

As to `CSCC[C@H](NC(=O)c1ccc(COC(CCC2CCCCC2)c2ccns2)cc1-c1ccccc1C)C(=O)O` (stereo partly drawn) [Example 1223, N-[4-(1-(Isothiaz-5-yl)-3-cyclohexylpropan-1-yloxymethyl)-2-(2-methylphenyl)benzoyl]methionine lithium salt], the inhibition (usually the relative decrease from the control value, in per cent) at 0.01 µM stood at 91%.
Take `CSCC[C@H](NC(=O)c1ccc(COC(CCC2CCCCC2)c2ncnn2C)cc1-c1ccccc1C)C(=O)O` (stereo partly drawn) [Example 1224, N-[4-(1-(1-Methyl-1,2,4-triaz-5-yl)-3-cyclohexylpropan-1-yloxymethyl)-2-(2-methylphenyl)benzoyl]methionine lithium salt]: under setting [1], the inhibition at 0.1 µM came to 88%.
On to `CSCC[C@H](NC(=O)c1ccc(COC(CCC2CCCCC2)c2cnnn2C)cc1-c1ccccc1C)C(=O)O` (stereo partly drawn) [Example 1225, N-[4-(1-(1-Methyl-1,2,3-triaz-5-yl)-3-cyclohexylpropan-1-yloxymethyl)-2-(2-methylphenyl)benzoyl]methionine lithium salt], for which the inhibition at 0.01 µM under setting [2] worked out at 92%.
Regarding `CSCC[C@H](NC(=O)c1ccc(COCc2cc(F)cc(F)c2)cc1-c1ccccc1C)C(=O)O` [Example 1226, N-[4-(3,5-trifluorobenzyloxymethyl)-2-(2-methylphenyl)benzoyl]methionine lithium salt], the inhibition at 0.01 µM under setting [2] turned out to be 69%.
For `CSCC[C@H](NC(=O)c1ccc(COC(c2ccccc2)C2CCN(S(=O)(=O)c3ccccc3)CC2)cc1-c1ccccc1C)C(=O)O` (stereo partly drawn) [Example 1252, N-[4-(1-(4-(N-phenylsulfonyl)piperidinyl)benzyloxymethyl-2-(2-methylphenyl)benzoyl]methioninelithium salt], under setting [1], the inhibition at 0.1 µM turned out to be 84%.
On to `CSCC[C@H](NC(=O)c1ccc(COC(Cc2ccccc2)C2CCN(S(=O)(=O)c3ccccc3)CC2)cc1-c1ccccc1C)C(=O)O` (stereo partly drawn) [Example 1253, N-[4-(2-phenyl-1-(4-(N-phenylsulfonyl)piperidinyl)ethyloxymethyl-2-(2-methylphenyl)benzoyl]methioninelithium salt], for which the inhibition at 0.1 µM under setting [1] is 76%.
For the molecule `CSCC[C@H](NC(=O)c1ccc(COCCc2cccc(F)c2)cc1-c1ccccc1C)C(=O)O` [Example 1274, N-[4-(2-(3-fluorophenyl)ethyloxymethyl-2-(2-methylphenyl)benzoyl]methioninelithium salt], the inhibition at 0.1 µM under setting [1] worked out at 89%.
`CCCCC(OCc1ccc(C(=O)N[C@@H](CCSC)C(=O)O)c(-c2ccccc2C)c1)C1CCOCC1` (stereo partly drawn) [Example 1282, N-[4-(1-(4-tetrahydropyranyl)pentyloxymethyl-2-(2-methylphenyl)benzoyl]methioninelithium salt]: under setting [1], the inhibition at 0.1 µM was determined as 69%.
In the case of `CSCC[C@H](NC(=O)c1ccc(COC(c2ccccc2)C2CCOCC2)cc1-c1ccccc1C)C(=O)O` (stereo partly drawn) [Example 1283, N-[4-(1-(4-tetrahydropyranyl)benzyloxymethyl-2-(2-methylphenyl)benzoyl]methioninelithium salt], under setting [1], the inhibition at 0.1 µM stood at 74%.
As for `CCCCC(OCc1ccc(C(=O)N[C@@H](CCSC)C(=O)[O-])c(-c2ccccc2C)c1)C1CCNCC1.[Li+]` (stereo partly drawn) [Example 1288], the % inhibition (usually how much of the control response was suppressed) at 0.1 μM (*) under setting [1] was 69%.
`CCCC[C@H](CC1CCCCC1)OCc1ccc(C(=O)N[C@@H](CCSC)C(=O)O)c(-c2ccccc2C)c1` [Example 1303, N-[4-(1-Cyclohexyl-2-hexyloxymethyl)-2-(2-methylphenyl)benzoyl]methionine Lithium Salt]: under setting [2], the inhibition at 0.01 µM came out at 91%.
With `COC[C@H](CC1CCCCC1)OCc1ccc(C(=O)N[C@@H](CCSC)C(=O)O)c(-c2ccccc2C)c1` [Example 1304, N-[4-(3-Cyclohexyl-1-methoxyprop-2-yloxymethyl)-2-(2-methylphenyl)benzoyl]methionine Lithium Salt], the inhibition at 0.01 µM under setting [2] came to 90%.
As to `CCCOC[C@H](CC1CCCCC1)OCc1ccc(C(=O)N[C@@H](CCSC)C(=O)O)c(-c2ccccc2C)c1` [Example 1305, N-[4-(3-Cyclohexyl-1-propoxyprop-2-yloxymethyl)-2-(2-methylphenyl)benzoyl]methionine Lithium Salt], the inhibition at 0.01 µM under setting [2] came out at 91%.
Turning to `CSCC[C@H](NC(=O)c1ccc(CO[C@H](COC(C)C)CC2CCCCC2)cc1-c1ccccc1C)C(=O)O` [Example 1306, N-[4-[(S)-3-Cyclohexyl-1-(1-methylethoxy)prop-2-yloxymethyl]-2-(2-methylphenyl)benzoyl]methionine Lithium Salt], the inhibition at 0.01 µM turned out to be 85%.
For `CSCC[C@H](NC(=O)c1ccc(CO[C@H](COC(C)(C)C)CC2CCCCC2)cc1-c1ccccc1C)C(=O)O` [Example 1307], the inhibition at 0.01 µM under setting [2] amounted to 85%.
Regarding `CCCCOCC(CC1CCCCC1)OCc1ccc(C(=O)N[C@@H](CCSC)C(=O)O)c(-c2ccccc2C)c1` (stereo partly drawn) [Example 1308, N-[4-(3-Cyclohexyl-1-butoxyprop-2-yloxymethyl)-2-(2-methylphenyl)benzoyl]methionine Lithium Salt], the inhibition at 0.01 µM worked out at 91%.
Regarding `CSCC[C@H](NC(=O)c1ccc(CO[C@H](COCCC(C)(C)C)CC2CCCCC2)cc1-c1ccccc1C)C(=O)O` [Example 1309, N-[4-(3-Cyclohexyl-1-(3,3-dimethylbut-1-yloxy)prop-2-yloxymethyl)-2-(2-methylphenyl)benzoyl]methionine Lithium Salt], the inhibition at 0.1 µM under setting [1] was 96%.
On to `CC[S+]([O-])C[C@H](CC1CCCCC1)OCc1ccc(C(=O)N[C@@H](CCSC)C(=O)O)c(-c2ccccc2C)c1` (stereo partly drawn) [Example 1310, Lithium Salt], for which the inhibition at 0.01 µM under setting [2] stood at 90%.
Consider `CCS(=O)(=O)C[C@H](CC1CCCCC1)OCc1ccc(C(=O)N[C@@H](CCSC)C(=O)O)c(-c2ccccc2C)c1` [Example 1311, N-[4-(3-Cyclohexyl-1-ethylsulfonylprop-2-yloxymethyl)-2-(2-methylphenyl)benzoyl]methionine Lithium Salt], for which, under setting [2], the inhibition at 0.01 µM was 95%.
For `CCCCSC[C@H](CC1CCCCC1)OCc1ccc(C(=O)N[C@@H](CCSC)C(=O)O)c(-c2ccccc2C)c1` [Example 1312, N-[4-(1-Butylthio-3-cyclohexylprop-2-yloxymethyl)-2-(2-methylphenyl)benzoyl]methionine Lithium Salt], the inhibition at 0.01 µM under setting [2] came to 91%.
`CSCC[C@H](NC(=O)c1ccc(COC[C@@H](O)CC2CCCCC2)cc1-c1ccccc1C)C(=O)O` [Example 1314, N-[4-(3-Cyclohexyl-2-hydroxyprop-1-yloxymethyl)-2-(2-methylphenyl)benzoyl]methionine Lithium Salt]: the inhibition at 0.1 µM under setting [1] is 96%.
On the same count and under the same terms, the value for `CCCC[C@@H](COCc1ccc(C(=O)N[C@@H](CCSC)C(=O)O)c(-c2ccccc2C)c1)CC1CCCCC1` [Example 1315, N-[4-(2-Cyclohexylmethylhex-1-yloxymethyl)-2-(2-methylphenyl)benzoyl]methionine Lithium Salt] was 86%; that for `COc1ccc(CO[C@H](COCc2ccc(C(=O)N[C@@H](CCSC)C(=O)O)c(-c3ccccc3C)c2)CC2CCCCC2)cc1` [Example 1316, N-[4-(3-Cyclohexyl-2-(4-methoxybenzyloxy)prop-1-yloxymethyl)-2-(2-methylphenyl)benzoyl]methionine Lithium Salt] was 78%.
In the case of `CCSCC(CC1CCCCC1)NCc1cc(-c2ccccc2C)c(C(=O)N[C@@H](CCSC)C(=O)O)cc1OC` (stereo partly drawn) [Example 1337], the “% inhibition at 0.01 μM (**)” value under setting [2] is 83%.
Take `CSCC[C@H](NC(=O)c1ccc(CO[C@H](COC2CCC2)CC2CCCCC2)cc1-c1ccccc1C)C(=O)O` [Example 1345]: the inhibition at 0.01 µM under setting [2] stood at 94%.
As for `CSCC[C@H](NC(=O)c1ccc(CO[C@H](COCC2COC(C)(C)O2)CC2CCCCC2)cc1-c1ccccc1C)C(=O)O` (stereo partly drawn) [Example 1346, N-[4-(3-Cyclohexyl-1-(2,2-dimethyl-1,3-dioxolan-4-methanoxy)prop-2-yloxymethyl)-2-(2-methylphenyl)benzoyl]methionine, Lithium Salt], under setting [1], the inhibition at 0.1 µM was 94%.
As to `CSCC[C@H](NC(=O)c1ccc(CO[C@H](COCC(O)CO)CC2CCCCC2)cc1-c1ccccc1C)C(=O)O` (stereo partly drawn) [Example 1347, N-[4-(3-Cyclohexyl-1-(2,3-dihydroxy-1-propoxy)-prop-2-yloxymethyl)-2-(2-methylphenyl)benzoyl]methionine, Lithium Salt], the inhibition at 0.01 µM under setting [2] is 81%.
As for `CSCC[C@H](NC(=O)c1ccc(CO[C@@H](CC2CCCCC2)C(=O)N2CCS(=O)(=O)CC2)cc1-c1ccccc1C)C(=O)O` [Example 1348, N-[4-(3-cyclohexyl-N-thiomorpholin-S,S-dioxide-4-ylpropion-2-yloxymethyl)-2-(2-methylphenyl)benzoyl]methionine, Lithium Salt], the inhibition at 0.01 µM under setting [2] is 78%.
For `CSCC[C@H](NC(=O)c1ccc(COC(CCC2CCCCC2)c2ccnnc2)cc1-c1ccccc1C)C(=O)O` (stereo partly drawn) [Example 1349, N-[4-(1-(Pyridazin-4-yl)-3-cyclohexylpropan-1-yloxymethyl)-2-(2-methylphenyl)benzoyl]methionine lithium salt], the inhibition at 0.01 µM came to 92%.
As for “N-[4-(2-adamantan-1-ylpropoxy)-2-(2-methylphenyl)benzoyl]methionine, lithium salt [Example 563]”, the “% inhibition at 1 × 10^-7 M” value (Table 3, 1 × 10^-7 M) is 95%.
